In ChEMBL document CHEMBL1130906, “Actinomycin D, C2 and VII, inhibitors of Grb2-SHC interaction produced by Streptomyces” (Bioorg Med Chem Lett, 1998):
Numbered stars: 1 amine (or outer) side, 2 acyl side, 3 side chain; on linkers, the order of the positions; unused ones are H or OH. Bridge positions count the residues as written; N and C are the ends. Square brackets hold non-standard residues; d marks the D form. Peptide text beside a SMILES is read from it. I, II: the chains in the order shown. Actinocin(1to9) = Cc1c2oc3c(C)ccc(C(=O)[*:2])c3nc-2c(C(=O)[*:1])c(N)c1=O; Actinocin(9to1) = Cc1c2oc3c(C)ccc(C(=O)[*:1])c3nc-2c(C(=O)[*:2])c(N)c1=O; NMeV = CN[CH](C(=O)O)C(C)C; Sar = CNCC(=O)O

molecular target: Growth factor receptor-bound protein 2 (Homo sapiens, UniProt P62993); assay: Inhibition of GST-Grb2 Tyrosine kinase SH2 domain binding to [3H]labeled-phosphopeptide (Ac-SpYVNK-NH-C(O)-CH2CH2H3)

IC50 [µM]	SMILES
7.6	CCC(C)C1NC(=O)C(NC(=O)c2c3nc4c(C(=O)NC5C(=O)NC(C(C)CC)C(=O)N6CCCC6C(=O)N(C)CC(=O)N(C)C(C(C)C)C(=O)OC5C)ccc(C)c4oc-3c(C)c(=O)c2N)C(C)OC(=O)C(C(C)C)N(C)C(=O)CN(C)C(=O)C2CCCN2C1=O (stereo not drawn) (I: TIP[Sar][NMeV] / II: TIP[Sar][NMeV]; ester I:1-I:C, II:1-II:C; linker I:N-II:N via Actinocin(1to9); configuration not given here)
5.9	CC[C@H](C)[C@@H]1NC(=O)[C@@H](NC(=O)c2ccc(C)c3oc4c(C)c(=O)c(N)c(C(=O)N[C@@H]5C(=O)N[C@@H](C(C)C)C(=O)N6CCC[C@H]6C(=O)N(C)CC(=O)N(C)[C@@H](C(C)C)C(=O)O[C@@H]5C)c-4nc23)[C@@H](C)OC(=O)[C@H](C(C)C)N(C)C(=O)CN(C)C(=O)[C@@H]2CCCN2C1=O (I: TIP[Sar][NMeV] / II: TVP[Sar][NMeV]; ester I:1-I:C, II:1-II:C; linker I:N-II:N via Actinocin(9to1))
5	Cc1c2oc3c(C)ccc(C(=O)N[C@@H]4C(=O)N[C@H](C(C)C)C(=O)N5CCC[C@H]5C(=O)N(C)CC(=O)N(C)[C@@H](C(C)C)C(=O)O[C@@H]4C)c3nc-2c(C(=O)N[C@@H]2C(=O)N[C@H](C(C)C)C(=O)N3CCC[C@H]3C(=O)N(C)CC(=O)N(C)[C@@H](C(C)C)C(=O)O[C@@H]2C)c(N)c1=O [DACTINOMYCIN] (I: T[dV]P[Sar][NMeV] / II: T[dV]P[Sar][NMeV]; ester I:1-I:C, II:1-II:C; linker I:N-II:N via Actinocin(9to1))
